Measured values taken from PubChem BioAssay (NCI).
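All cell lines were grown in 96-well plates and treated with compound for 48 hours. GI50 marks 50% less growth. At the TGI there is no net growth.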

How the values were obtained:
Assay in all cases: NCI-60 cell line screen, 48 h; in the data active = GI50 below about 0.43 µM; inactive = the rest
[1] = tested on: UO-31 renal
[2] = tested on: SNB-19 CNS
[3] = tested on: TK-10 renal
[4] = tested on: MALME-3M melanoma
[5] = tested on: SK-OV-3 ovarian
[6] = tested on: HCC-2998 colon
[7] = tested on: A549 NSCLC
[8] = tested on: UACC-257 melanoma
[9] = tested on: U251 CNS
[10] = tested on: SK-MEL-2 melanoma
[11] = tested on: SNB-75 CNS
[12] = tested on: MOLT-4 leukemia
[13] = tested on: NCI/ADR-RES ovarian
[14] = tested on: UACC-62 melanoma
[15] = tested on: NCI-H522 lung
[16] = tested on: SF-268 CNS
[17] = tested on: MDA-MB-231 breast
[18] = tested on: COLO 205 colon
[19] = tested on: DU-145 prostate
[20] = tested on: OVCAR-8 ovarian
[21] = tested on: LOX IMVI melanoma
[22] = tested on: SF-295 CNS
[23] = tested on: SR leukemia
[24] = tested on: NCI-H23 lung
[25] = tested on: HCT-116 colon
[26] = tested on: HS 578T breast
[27] = tested on: NCI-H226 lung
[28] = tested on: HT29 colon
[29] = tested on: HOP-92 NSCLC
[30] = tested on: KM12 colon
[31] = tested on: A498 renal
[32] = tested on: IGROV1 ovarian
[33] = tested on: T-47D breast
[34] = tested on: HCT-15 colon
[35] = tested on: SN12C renal
[36] = tested on: CCRF-CEM leukemia
[37] = tested on: HL-60(TB) leukemia
[38] = tested on: HOP-62 NSCLC
[39] = tested on: M14 melanoma
[40] = tested on: EKVX NSCLC
[41] = tested on: RPMI-8226 leukemia
[42] = tested on: 786-0 renal
[43] = tested on: CAKI-1 renal
[44] = tested on: SK-MEL-5 melanoma
[45] = tested on: SF-539 CNS
[46] = tested on: SW-620 colon
[47] = tested on: PC-3 prostate
[48] = tested on: OVCAR-4 ovarian
[49] = tested on: BT-549 breast
[50] = tested on: ACHN renal
[51] = tested on: OVCAR-3 ovarian
[52] = tested on: K-562 leukemia
[53] = tested on: NCI-H460 lung
[54] = tested on: OVCAR-5 ovarian
[55] = tested on: MDA-MB-435
[56] = tested on: MCF7 breast
[57] = tested on: SK-MEL-28 melanoma

Cc1cc2c(cc1Cl)SC1=NN(C)C(c3ccccc3O)N1S2(=O)=O (centres undefined)
inactive: GI50 [1] 53.7 µM | GI50 [2] 86.7 µM | GI50 [3] 82.1 µM | GI50 [4] > 100 µM | GI50 [5] > 100 µM | GI50 [6] 65.5 µM | GI50 [7] 86.2 µM | GI50 [8] > 100 µM | GI50 [9] 47.7 µM | GI50 [10] > 100 µM | GI50 [11] > 100 µM | GI50 [12] > 100 µM | GI50 [13] 39 µM | GI50 [14] 73.8 µM | GI50 [15] > 100 µM | GI50 [16] 61.6 µM | GI50 [17] 60.3 µM | GI50 [18] > 100 µM | GI50 [19] 65.7 µM | GI50 [20] 68 µM | GI50 [21] 40.5 µM | GI50 [22] 43.6 µM | GI50 [23] 36.6 µM | GI50 [24] > 100 µM | GI50 [25] 44.1 µM | GI50 [26] > 100 µM | GI50 [27] > 100 µM | GI50 [28] > 100 µM | GI50 [29] 37.6 µM | GI50 [30] 57.7 µM | GI50 [31] > 100 µM | GI50 [32] 77.8 µM | GI50 [33] > 100 µM | GI50 [34] 54 µM | GI50 [35] 58.7 µM | GI50 [36] 75.4 µM | GI50 [37] > 100 µM | GI50 [38] 88.5 µM | GI50 [39] 47.5 µM | GI50 [40] 81.7 µM | GI50 [41] > 100 µM | GI50 [42] > 100 µM | GI50 [43] > 100 µM | GI50 [44] 57 µM | GI50 [45] 32.1 µM | GI50 [46] 94.5 µM | GI50 [47] > 100 µM | GI50 [48] 51.5 µM | GI50 [49] 95.2 µM | GI50 [50] > 100 µM | GI50 [51] 46 µM | GI50 [52] > 100 µM | GI50 [53] 37.4 µM | GI50 [54] 60 µM | GI50 [55] > 100 µM | GI50 [56] > 100 µM | GI50 [57] 86.2 µM
> 100 µM: TGI [1] | TGI [2] | TGI [3] | TGI [4] | TGI [5] | TGI [6] | TGI [7] | TGI [8] | TGI [9] | TGI [10] | TGI [11] | TGI [12] | TGI [13] | TGI [14] | TGI [15] | TGI [16] | TGI [17] | TGI [18] | TGI [19] | TGI [20] | TGI [21] | TGI [22] | TGI [23] | TGI [24] | TGI [25] | TGI [26] | TGI [27] | TGI [28] | TGI [29] | TGI [30] | TGI [31] | TGI [32] | TGI [33] | TGI [34] | TGI [35] | TGI [36] | TGI [37] | TGI [38] | TGI [39] | TGI [40] | TGI [41] | TGI [42] | TGI [43] | TGI [44] | TGI [45] | TGI [46] | TGI [47] | TGI [48] | TGI [49] | TGI [50] | TGI [51] | TGI [52] | TGI [53] | TGI [54] | TGI [55] | TGI [56] | TGI [57]
